{
  "source": "paper PMC5053573",
  "about": "“Structure-Based Design of Tetrahydroisoquinoline-7-carboxamides as Selective Discoidin Domain Receptor 1 (DDR1) Inhibitors” (Journal of Medicinal Chemistry, 2016)",
  "key": {"CDK11": {"target": "CDK11 (Homo sapiens, UniProt Q9BWU1)", "sequence (Q9BWU1 whole entry)": "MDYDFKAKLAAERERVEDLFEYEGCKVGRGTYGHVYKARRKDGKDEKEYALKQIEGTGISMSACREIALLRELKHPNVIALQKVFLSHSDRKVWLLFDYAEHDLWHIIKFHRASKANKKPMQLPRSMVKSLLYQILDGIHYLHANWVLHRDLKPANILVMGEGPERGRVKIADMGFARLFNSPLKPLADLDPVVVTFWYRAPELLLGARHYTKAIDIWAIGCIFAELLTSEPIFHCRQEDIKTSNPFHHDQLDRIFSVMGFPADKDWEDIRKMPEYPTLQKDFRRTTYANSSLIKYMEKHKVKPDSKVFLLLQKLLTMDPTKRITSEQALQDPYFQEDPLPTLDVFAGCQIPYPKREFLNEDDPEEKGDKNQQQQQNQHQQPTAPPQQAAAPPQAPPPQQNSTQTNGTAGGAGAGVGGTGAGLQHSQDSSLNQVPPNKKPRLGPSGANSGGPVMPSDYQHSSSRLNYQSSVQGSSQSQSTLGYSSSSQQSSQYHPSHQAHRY", "test": "KINOMEscan binding constant, CDK11", "conditions": "read-out: Binding affinity (Kd, nM) CDK11"}, "PFCDPK1(P.falciparum)": {"target": "T1, PFCDPK1(P.falciparum) (Plasmodium falciparum, UniProt P62344)", "T1 construct": "gene CDPK1", "test": "biochemical", "conditions": "competition binding; read-out: %Ctrl @ 1000nM"}, "CAMK1G": {"target": "CAMK1G (Homo sapiens, UniProt Q96NX5)", "sequence (Q96NX5 whole entry)": "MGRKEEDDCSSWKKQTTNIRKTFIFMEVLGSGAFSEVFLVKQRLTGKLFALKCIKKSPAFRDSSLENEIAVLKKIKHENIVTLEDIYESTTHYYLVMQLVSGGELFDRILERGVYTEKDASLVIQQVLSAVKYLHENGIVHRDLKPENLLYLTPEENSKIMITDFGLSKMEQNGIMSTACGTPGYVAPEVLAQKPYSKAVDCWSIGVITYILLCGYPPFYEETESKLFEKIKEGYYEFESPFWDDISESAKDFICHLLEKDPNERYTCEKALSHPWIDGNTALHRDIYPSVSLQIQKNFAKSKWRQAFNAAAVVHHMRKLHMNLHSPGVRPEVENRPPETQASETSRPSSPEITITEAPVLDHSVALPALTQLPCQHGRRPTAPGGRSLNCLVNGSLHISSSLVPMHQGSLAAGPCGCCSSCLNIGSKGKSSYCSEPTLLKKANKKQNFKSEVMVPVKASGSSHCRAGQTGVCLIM", "test": "biochemical", "conditions": "read-out: %Ctrl @ 1000nM"}, "CDC2L2": {"target": "T2, CDC2L2 (Homo sapiens, UniProt Q9UQ88)", "T2 construct": "gene CDK11A", "test": "biochemical", "conditions": "read-out: %Ctrl @ 1000nM"}, "EGFR(S752-I759del)": {"target": "EGFR(S752-I759del) (Homo sapiens, UniProt P00533, DEL752-759)", "sequence (P00533 with tags, fused parts or gaps DEL752-759)": "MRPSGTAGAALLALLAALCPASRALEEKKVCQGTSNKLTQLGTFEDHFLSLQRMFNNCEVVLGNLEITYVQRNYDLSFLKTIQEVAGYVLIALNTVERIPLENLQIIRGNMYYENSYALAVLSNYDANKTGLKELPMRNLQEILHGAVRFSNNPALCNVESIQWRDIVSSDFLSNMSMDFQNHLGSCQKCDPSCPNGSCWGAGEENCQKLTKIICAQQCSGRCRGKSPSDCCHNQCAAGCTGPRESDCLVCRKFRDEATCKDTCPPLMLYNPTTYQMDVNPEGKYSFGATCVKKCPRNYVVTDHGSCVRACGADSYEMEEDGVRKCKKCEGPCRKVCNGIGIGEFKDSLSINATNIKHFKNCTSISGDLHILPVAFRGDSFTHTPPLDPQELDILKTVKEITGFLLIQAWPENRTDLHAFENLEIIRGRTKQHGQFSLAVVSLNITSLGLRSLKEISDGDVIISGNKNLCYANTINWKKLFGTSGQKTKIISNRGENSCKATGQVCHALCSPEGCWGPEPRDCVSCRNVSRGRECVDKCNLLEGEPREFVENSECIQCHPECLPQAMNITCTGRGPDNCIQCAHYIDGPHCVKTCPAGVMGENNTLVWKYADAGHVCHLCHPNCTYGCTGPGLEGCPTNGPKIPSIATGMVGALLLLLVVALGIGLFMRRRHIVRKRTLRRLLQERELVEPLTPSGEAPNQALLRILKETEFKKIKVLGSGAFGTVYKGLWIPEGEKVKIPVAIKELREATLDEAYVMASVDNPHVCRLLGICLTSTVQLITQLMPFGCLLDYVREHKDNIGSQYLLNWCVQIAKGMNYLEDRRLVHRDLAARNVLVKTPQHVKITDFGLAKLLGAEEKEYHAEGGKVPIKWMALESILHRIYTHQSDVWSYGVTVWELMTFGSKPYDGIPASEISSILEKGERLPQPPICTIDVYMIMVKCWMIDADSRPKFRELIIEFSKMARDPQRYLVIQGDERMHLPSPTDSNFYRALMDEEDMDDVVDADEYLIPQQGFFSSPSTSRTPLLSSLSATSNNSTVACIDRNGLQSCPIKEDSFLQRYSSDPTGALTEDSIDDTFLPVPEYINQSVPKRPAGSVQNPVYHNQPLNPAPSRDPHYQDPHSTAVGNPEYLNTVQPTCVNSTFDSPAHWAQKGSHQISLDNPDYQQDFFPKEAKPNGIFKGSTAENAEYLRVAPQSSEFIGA", "test": "biochemical", "conditions": "read-out: %Ctrl @ 1000nM"}, "PAK7": {"target": "T3, PAK7 (Homo sapiens, UniProt Q9P286)", "T3 construct": "gene PAK5", "test": "biochemical", "conditions": "read-out: %Ctrl @ 1000nM"}, "PIK3CA(E545A)": {"target": "PIK3CA(E545A) (Homo sapiens, UniProt P42336, E545A)", "sequence (P42336 whole entry E545A)": "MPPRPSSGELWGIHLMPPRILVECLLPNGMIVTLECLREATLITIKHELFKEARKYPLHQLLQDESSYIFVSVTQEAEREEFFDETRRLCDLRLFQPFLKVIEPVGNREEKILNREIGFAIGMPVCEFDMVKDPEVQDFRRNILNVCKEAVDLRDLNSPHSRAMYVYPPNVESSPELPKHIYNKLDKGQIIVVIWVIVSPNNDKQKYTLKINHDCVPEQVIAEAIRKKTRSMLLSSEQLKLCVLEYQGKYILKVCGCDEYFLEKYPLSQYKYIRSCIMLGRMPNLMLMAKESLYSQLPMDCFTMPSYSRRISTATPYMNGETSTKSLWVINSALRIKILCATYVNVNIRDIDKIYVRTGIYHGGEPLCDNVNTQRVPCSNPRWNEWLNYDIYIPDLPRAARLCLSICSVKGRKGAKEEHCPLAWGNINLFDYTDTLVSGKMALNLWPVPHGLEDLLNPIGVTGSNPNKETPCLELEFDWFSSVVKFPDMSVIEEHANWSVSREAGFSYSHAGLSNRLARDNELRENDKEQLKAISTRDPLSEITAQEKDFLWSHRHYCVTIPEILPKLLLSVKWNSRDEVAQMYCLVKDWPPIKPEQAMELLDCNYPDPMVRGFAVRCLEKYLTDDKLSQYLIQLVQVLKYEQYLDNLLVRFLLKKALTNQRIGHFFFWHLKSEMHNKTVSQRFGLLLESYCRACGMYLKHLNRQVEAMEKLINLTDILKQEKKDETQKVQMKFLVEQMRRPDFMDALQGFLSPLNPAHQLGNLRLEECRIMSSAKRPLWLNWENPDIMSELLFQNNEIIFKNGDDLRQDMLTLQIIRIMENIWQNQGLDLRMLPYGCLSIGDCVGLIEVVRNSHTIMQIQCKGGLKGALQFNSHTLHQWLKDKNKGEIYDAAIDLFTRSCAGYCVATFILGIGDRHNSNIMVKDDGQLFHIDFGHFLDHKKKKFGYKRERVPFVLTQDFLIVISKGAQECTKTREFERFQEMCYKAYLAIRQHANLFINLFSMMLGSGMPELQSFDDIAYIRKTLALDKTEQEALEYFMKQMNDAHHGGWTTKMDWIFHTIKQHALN", "test": "biochemical", "conditions": "read-out: %Ctrl @ 1000nM"}, "[1]": {"target": "RPS6KA5(Kin.Dom.2-C-terminal) (Homo sapiens, UniProt O75582)", "sequence (O75582 whole entry)": "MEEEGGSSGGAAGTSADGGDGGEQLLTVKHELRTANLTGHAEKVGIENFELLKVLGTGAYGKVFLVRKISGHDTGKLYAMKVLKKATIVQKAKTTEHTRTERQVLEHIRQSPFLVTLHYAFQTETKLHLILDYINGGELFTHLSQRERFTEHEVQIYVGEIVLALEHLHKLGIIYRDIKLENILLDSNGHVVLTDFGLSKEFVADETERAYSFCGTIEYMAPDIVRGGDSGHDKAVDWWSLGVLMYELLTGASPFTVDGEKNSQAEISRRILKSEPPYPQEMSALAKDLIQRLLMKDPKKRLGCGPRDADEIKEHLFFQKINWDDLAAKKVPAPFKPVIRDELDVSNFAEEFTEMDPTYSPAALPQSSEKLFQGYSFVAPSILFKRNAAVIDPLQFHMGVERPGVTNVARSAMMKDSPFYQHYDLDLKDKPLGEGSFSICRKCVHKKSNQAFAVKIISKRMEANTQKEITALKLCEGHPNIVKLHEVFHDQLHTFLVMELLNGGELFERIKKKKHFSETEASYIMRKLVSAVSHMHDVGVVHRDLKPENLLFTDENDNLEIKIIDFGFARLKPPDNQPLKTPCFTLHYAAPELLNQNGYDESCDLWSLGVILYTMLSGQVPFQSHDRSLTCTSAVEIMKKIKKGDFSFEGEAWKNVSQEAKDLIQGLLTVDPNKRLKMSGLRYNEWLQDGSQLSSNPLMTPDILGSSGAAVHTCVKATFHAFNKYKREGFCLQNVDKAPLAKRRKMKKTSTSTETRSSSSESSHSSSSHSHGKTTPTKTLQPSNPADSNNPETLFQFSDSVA", "test": "biochemical", "conditions": "read-out: %Ctrl @ 1000nM"}},
  "data": [
    {"smiles": "Cc1cn(-c2cc(NC(=O)c3ccc4c(c3)CN(c3cncnc3)C[C@@H]4C)cc(C(F)(F)F)c2)cn1", "note": "[Compound 6j]", "values": [
      {"measurement": "Kd", "setting": "CDK11", "value": 370, "unit": "nM"},
      {"measurement": "remaining binding at 1 µM", "setting": "PFCDPK1(P.falciparum)", "value": 93, "unit": "%"},
      {"measurement": "remaining activity at 1 µM", "setting": "CAMK1G", "value": 84, "unit": "%"},
      {"measurement": "remaining activity at 1 µM", "setting": "CDC2L2", "value": 97, "unit": "%"},
      {"measurement": "remaining activity at 1 µM", "setting": "EGFR(S752-I759del)", "value": 82, "unit": "%"},
      {"measurement": "remaining activity at 1 µM", "setting": "PAK7", "value": 98, "unit": "%"},
      {"measurement": "remaining activity at 1 µM", "setting": "PIK3CA(E545A)", "value": 86, "unit": "%"},
      {"measurement": "remaining activity at 1 µM", "setting": "[1]", "value": 100, "unit": "%"}
    ]}
  ]
}
